Measurements: ChEMBL document CHEMBL4196030, “Enediynes bearing polyfluoroaryl sulfoxide as new antiproliferative agents with dual targeting of microtubules and DNA” (Eur J Med Chem, 2018)
Activity calls are given as the source filed them. No cut-off for these calls is given here.

Experiments:
[1] = test system: MIA PaCa-2; assay: Antiproliferative activity against human MIAPaCa2 cells after 70 hrs by alamar blue assay; format: functional, cell-based; conditions: MIA PaCa-2, 70 h
[2] = species on record: Homo sapiens; assay: Disruption of microtubule network in human MIAPaCa2 cells at 5 times antiproliferative IC50 after 1 to 12 hrs by immunofluorescence assay; format: cell-based
[3] = test system: A549; assay: Disruption of microtubule network in human A549 cells at 5 times antiproliferative IC50 after 1 to 12 hrs by immunofluorescence assay; format: cell-based
[4] = Induction of supercoiled plasmid complementary DNA3 cleavage at 100 uM after 1 hr by gel electrophoresis method
[5] = test system: A498; assay: Disruption of microtubule network in human A498 cells at 5 times antiproliferative IC50 after 1 to 12 hrs by immunofluorescence assay; format: cell-based
[6] = test system: MIA PaCa-2; assay: Cytotoxicity against human MIAPaCa2 cells assessed as reduction in cell viability after 70 hrs by alamar blue assay; format: cell-based; conditions: MIA PaCa-2, 70 h
[7] = test system: BEAS-2B; assay: Cytotoxicity against human BEAS2B cells assessed as reduction in cell viability after 70 hrs by alamar blue assay; format: cell-based
[8] = test system: HUVEC; assay: Antiproliferative activity against HUVEC after 70 hrs by alamar blue assay; format: cell-based; conditions: Homo sapiens
[9] = test system: HBL-100; assay: Antiproliferative activity against human HBL100 cells after 70 hrs by alamar blue assay; format: cell-based; conditions: HBL-100, 70 h
[10] = test system: HBL-100; assay: Cytotoxicity against human HBL100 cells assessed as reduction in cell viability after 70 hrs by alamar blue assay; format: cell-based; conditions: HBL-100, 70 h
[11] = test system: BEAS-2B; assay: Antiproliferative activity against human BEAS2B cells after 70 hrs by alamar blue assay; format: cell-based
[12] = Ratio of IC50 for antiproliferative activity against human HBL100 cells to IC50 for cytotoxicity against human HBL100 cells; format: cell-based, HBL-100; conditions: read-out: Ratio IC50
[13] = Ratio of IC50 for antiproliferative activity against human MIAPaCa2 cells to IC50 for cytotoxicity against human MIAPaCa2 cells; parameters: species or system MIA PaCa-2
[14] = Ratio of IC50 for antiproliferative activity against human BEAS2B cells to IC50 for cytotoxicity against human BEAS2B cells; format: cell-based, BEAS-2B; conditions: read-out: Ratio IC50
[15] = test system: HUVEC; assay: Cytotoxicity against HUVEC assessed as reduction in cell viability after 70 hrs by alamar blue assay; format: cell-based; conditions: Homo sapiens

Work on `[N-]=[N+]=NCC#Cc1ccccc1C#CC[S+]([O-])c1c(F)c(F)c(F)c(F)c1F` (stereo unspecified) yielded an IC50 [1] of 2.4 µM.

In the case of `CCOC(=O)c1ccc(C#CCO)c(C#CC[S+]([O-])c2c(F)c(F)c(F)c(F)c2F)c1` (stereo unspecified), the IC50 [1] is reported as 1.6 µM.

`O=S(=O)(CC#Cc1ccccc1C#CCO)c1c(F)c(F)c(F)c(F)c1F` showed an IC50 [1] of 3.9 µM.

Compound `[O-][S+](CC#Cc1ccccc1C#CCCCCO)c1c(F)c(F)c(F)c(F)c1F` (stereo unspecified) has an IC50 [1] greater than 10 µM.

Compound `[O-][S+](CC#Cc1c(C#CCO)sc2ccccc12)c1c(F)c(F)c(F)c(F)c1F` (stereo unspecified) has an IC50 [1] of 2.2 µM.

For `[O-][S+](CC#Cc1ccccc1C#CCO)c1c(F)c(F)c(F)c(F)c1F` (stereo unspecified), the Activity [2] was “Active”, the IC50 [1] was 2.6 µM and the Activity [3] was “Active”. For the same compound, the Activity [4] was “inactive”.

With `COc1ccc(NS(=O)(=O)c2c(F)c(F)c(F)c(F)c2F)cc1F` [BATABULIN] the Activity [5] was “Active”, the IC50 [6] was 47.3 µM and the IC50 [7] was greater than 40 µM. It also gave an IC50 [8] of 6.3 µM, an IC50 [9] of 0.2 µM and an IC50 [10] greater than 40 µM. The IC50 [11] was 12.2 µM, the selectivity ratio [12] was greater than 190 and the “Ratio IC50” value [13] was 35.8. The selectivity ratio [14] was greater than 3.2 and the IC50 [15] was 16.4 µM.

For `COc1cc2c(c(OC)c1OC)-c1ccc(OC)c(=O)cc1[C@@H](NC(C)=O)CC2`, the Activity [5] was “Active”.
